Measured values taken from publication PMC7078782 (Drug Design, Development and Therapy, 2020).

What was measured:
Stock solution stability = type: physicochemical; details: under the experimental conditions
[1] = Stability of QC samples in beagle plasma; type: in vitro ADME; details: under the experimental conditions (room temperature, autosampler, freeze-thaw, −20°C)
[2] = cats; cited from earlier work
[3] = liver; cited from earlier work
[4] = Pharmacokinetic study in beagles after intramuscular injection of parecoxib; details: beagle, dog, plasma, im, 1.33 mg/kg, after intramuscular injection of 1.33 mg/kg parecoxib, n=6, mean ± SD

Row | Stock solution stability (in words) (Stock solution stability) | Stability in beagle plasma (in words) [1] | Tmax ([4]; Tmax, beagle plasma) [h] | half-life ([4]; t1/2, beagle plasma) [h] | SMILES | t1/2 of conversion to valdecoxib and propionic acid [2] | Share of elimination by sulfonamide glucose hydroformylation [3]
1 | stabilized | – | – | – | Cc1ccc(-c2cc(C(F)(F)F)nn2-c2ccc(S(N)(=O)=O)cc2)cc1 [IS, Celecoxib] | – | –
2 | stabilized | stable | – | – | CCC(=O)NS(=O)(=O)c1ccc(-c2c(-c3ccccc3)noc2C)cc1 [Parecoxib] | about 24 mins | –
3 | stabilized | stable | ~1.36 | ~2.27 | Cc1onc(-c2ccccc2)c1-c1ccc(S(N)(=O)=O)cc1 [Valdecoxib] | – | about 20%
